Source: patent US20100227853A1, “INHIBITORS OF CYCLIC AMP PHOSPHODIESTERASES” (Trustees of Boston College, priority 2008, published 2010)

How the values were obtained:
PDE7A = PDE7A (Homo sapiens, UniProt Q13946); test: 5FOA growth assay in fission yeast strain expressing PDE7A; format: cell-based; design: targets used in the assays are full-length proteins (as opposed to simply the catalytic domain); expressed in transfected cells; host or cells: Schizosaccharomyces pombe, PDE gene integrated in place of cgs2; details: for Composite Z score, PDE7A: high throughput 5FOA growth screen
Procedure, shortened: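 Growth stimulation, reported as composite Z scores, was read as OD600 after 48 h at 30 °C in 5FOA medium. Before this, reporter (fbp1-ura4) yeast were grown at 30 °C in EMM with 0–2.5 mM cAMP or 0.5/1.0 mM cGMP to repress the reporter, then exposed to 100 nl pinned compound (stocks generally 10 mM).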

PDE4B3 = target: T1, PDE4B3 (Mus musculus, UniProt Q8VBU5); test: 5FOA growth assay in fission yeast strain expressing PDE4B3; format: cell-based, Murine; details: for Composite Z score, PDE4B3: high throughput 5FOA growth screen
T1 construct: targets used in the assays are full-length proteins (as opposed to simply the catalytic domain); expressed in transfected cells; host or cells: Schizosaccharomyces pombe, PDE gene integrated in place of cgs2
T1 sequence (Q8VBU5 1-721): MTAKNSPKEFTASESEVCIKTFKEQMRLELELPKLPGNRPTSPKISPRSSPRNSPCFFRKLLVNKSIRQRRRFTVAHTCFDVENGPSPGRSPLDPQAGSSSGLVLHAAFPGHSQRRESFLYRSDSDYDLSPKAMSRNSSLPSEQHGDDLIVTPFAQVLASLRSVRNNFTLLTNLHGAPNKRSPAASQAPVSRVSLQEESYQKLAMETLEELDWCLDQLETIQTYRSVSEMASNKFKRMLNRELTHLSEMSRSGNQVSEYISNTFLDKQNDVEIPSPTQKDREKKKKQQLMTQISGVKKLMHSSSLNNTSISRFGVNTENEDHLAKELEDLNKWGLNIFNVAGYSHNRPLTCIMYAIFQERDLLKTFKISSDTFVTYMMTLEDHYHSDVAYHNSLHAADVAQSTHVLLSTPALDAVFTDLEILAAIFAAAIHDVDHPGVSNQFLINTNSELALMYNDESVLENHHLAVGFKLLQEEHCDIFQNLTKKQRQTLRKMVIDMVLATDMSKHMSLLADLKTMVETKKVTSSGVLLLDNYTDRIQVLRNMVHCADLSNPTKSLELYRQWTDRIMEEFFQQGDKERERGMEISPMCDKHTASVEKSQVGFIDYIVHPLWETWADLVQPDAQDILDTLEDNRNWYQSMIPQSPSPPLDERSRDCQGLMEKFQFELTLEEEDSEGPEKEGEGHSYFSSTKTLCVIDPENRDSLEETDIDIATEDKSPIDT
Procedure, shortened: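 Readout is OD600 after 48 h at 30° C in 5FOA medium, starting from 0.5–4×10^5 cells/ml; 5 mM cAMP served as positive control. Yeast expressing mouse PDE4A1 or PDE4B3 with an fbp1-ura4 reporter was first grown to exponential phase in EMM plus 0.5–2.5 mM cAMP. Hits were scored by composite Z scores.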

Sequence of PDE7A (Q13946 whole entry, the tested form may be a part): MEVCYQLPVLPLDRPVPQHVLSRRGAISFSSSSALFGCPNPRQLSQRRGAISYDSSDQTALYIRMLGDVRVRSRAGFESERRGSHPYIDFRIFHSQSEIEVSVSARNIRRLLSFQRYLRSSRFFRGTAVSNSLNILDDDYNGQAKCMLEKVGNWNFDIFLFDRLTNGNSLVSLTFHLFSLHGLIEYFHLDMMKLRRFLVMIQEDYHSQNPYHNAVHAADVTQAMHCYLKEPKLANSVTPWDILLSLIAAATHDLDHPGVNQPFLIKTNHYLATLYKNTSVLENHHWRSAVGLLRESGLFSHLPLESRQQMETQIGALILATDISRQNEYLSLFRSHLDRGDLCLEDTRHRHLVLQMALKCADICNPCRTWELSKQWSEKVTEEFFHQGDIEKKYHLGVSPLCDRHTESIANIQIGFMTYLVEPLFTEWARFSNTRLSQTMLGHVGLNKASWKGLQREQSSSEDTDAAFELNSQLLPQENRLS

Compound	Composite Z score, PDE7A (PDE7A)	Composite Z score, PDE4B3 (PDE4B3)	1 Assay (20 uM) 7A (PDE7A; 20 uM)	1 Assay (20 uM) 4B3 (PDE4B3; 20 uM)
c1csc(CCNc2ncnc3sc4c(c23)CCC4)c1 [Compound 2005M12]	−0.398	0.0838		
COc1ccc(NC(=O)c2sc3nc(C)nc(N(C)c4ccc(C(C)C)cc4)c3c2C)c(OC)c1 [Compound 2041I04]	0.7201	−0.545		
Cc1c(C(=O)NCCC2CCCCC2)sc2ncnc(N3CCCCC3C)c12 (stereo not shown) [Compound 2040H10]	1.3549	−1.056		
COC(=O)C1=C(C)N(c2ccccc2)/C(=C/c2cccs2)C1=O [2008, K19]			2.43 ND ND ND ND	−0.61 ND ND ND ND
Cc1cc(C)c(C)c(S(=O)(=O)N2CCN(c3ncnc4sc5c(c34)CCCC5)CC2)c1C [Compound 2012L13]	−0.684	−0.543		
CCCCN(CC)C(=O)c1sc2ncnc(N3CCN(c4ccc(OC)cc4)CC3)c2c1C [Compound 2007H06]	1.5462	0.3145		
CCN(CC)c1nc(C)nc2sc(C(=O)Nc3cc(Cl)ccc3OC)c(C)c12 [Compound 2040L12]	0.6002	3.2214		
OCCNc1ncnc2sc3c(c12)CCCC3 [Compound 2051H22]	−0.346	0.936		
Cc1nc(N2CCC(C)CC2)c2c(C)c(C(=O)N3CCN(c4ccc(F)cc4)CC3)sc2n1 [Compound 2040N10]	0.7021	3.1975		
CCOC(=O)c1sc2nc(C)nc(N(C)Cc3ccccc3)c2c1C [Compound 2007L04]	0.2354	0.2682		
COc1cccc(NC(=O)c2sc3ncnc(N4CCc5ccccc5C4)c3c2C)c1 [Compound 2041K21]	0.4852	4.5126		
O=C(Nc1ncnc2sc3c(c12)CCCCC3)c1ccc(F)cc1 [Compound 2012F09]	30.877	35.319		
CCN(CC)c1ncnc2sc(C(=O)N(C)C3CCCCC3)c(C)c12 [Compound 2040J12]	−0.165	5.3667		
CCNc1nc(SCc2ccc(Cl)cc2)nc2sc3c(c12)CCN(C)C3 [Compound 2054P05]	1.181	−0.211		
